Literature values, collected in patent publication US20250009647A1, “PHARMACEUTICAL COMPOSITION” (priority 2021, published 2025).

Legend:
[1] = in DMSO
[2] = in water

pKa(H2O) [2] | Structure (SMILES) | pKa(DMSO) [1]
2.67 | O=C(O)c1cc2ccccc2c(Cc2c(O)c(C(=O)O)cc3ccccc23)c1O [Pamoic acid] | 
0.99 | NS(=O)(=O)O [Sulfamic acid] | 6.5

Structure (SMILES) | pKa(H2O) [2] | pKa(DMSO) [1]
O=C(O)C(=O)O [Oxalic acid] | 1.46 | 6.2
